Consider 25 molecules from US8202902B2, “Bivalent SMAC mimetics and the uses thereof” (The Regents of the University of Michigan, priority 2006, dated 2012).

Experiment [1] addresses T1, human XIAP protein (residues 120-356) (Homo sapiens, UniProt P98170).
T1 construct: human XIAP protein (residues 120-356) (10 nM)
Put plainly: Fluorescence-polarization-based binding assay to XIAP protein (Smac2-F tracer). Particulars: read-out: Binding to XIAP IC50 values. How it is done:
The polarization values were measured after 2 hours incubation, using the Ultra plate reader. […] Curve fitting is performed using GraphPad Prism® software.

Experiment [2] concerns MDA-MB-231 human breast cancer cell line. Kind of experiment: Cell growth inhibition, WST-8 assay, MDA-MB-231. Format: cell-based. Particulars: MDA-MB-231, read-out: IC50 values (nM) In WST-assay (MDA-MB-231). How it is done: (§1) The rate of cell growth inhibition after treatment with different concentrations of the compound was determined using a WST-8 kit (2-(2-methoxy-4-nitrophenyl)-3-(4-nitrophenyl)-5-(2, 4 disulfophenyl)-2H-tetrazolium monosodium salt; Dojindo Molecular Technologies, Inc., Gaithersburg, Md.). WST-8 was added at a final concentration of 10% to each well, and then the plates were incubated at 37° C. for 2-3 hrs. The absorbance of the samples was measured at 450 nm using a ULTRA Tecan Reader (Molecular Device).
On the technique in general: Tetrazolium assays rely on reduction of a dye to a coloured formazan, in cell work by metabolically active cells.

A further experiment relates to SK-OV-3. Put plainly: Cell growth inhibition, WST assay, SK-OV-3. Particulars: Homo sapiens. Format: cell-based. How it is done: as §1, with “Cells were seeded in 96-well flat bottom cell culture plates at a density of 3000 cells/well with a tested compound and incubated at 37° C. in an atmosphere of 95% air and 5% CO2 for 4 days. The rate” for “The rate”

Some results are limits rather than exact numbers.

T1 sequence (P98170 120-356): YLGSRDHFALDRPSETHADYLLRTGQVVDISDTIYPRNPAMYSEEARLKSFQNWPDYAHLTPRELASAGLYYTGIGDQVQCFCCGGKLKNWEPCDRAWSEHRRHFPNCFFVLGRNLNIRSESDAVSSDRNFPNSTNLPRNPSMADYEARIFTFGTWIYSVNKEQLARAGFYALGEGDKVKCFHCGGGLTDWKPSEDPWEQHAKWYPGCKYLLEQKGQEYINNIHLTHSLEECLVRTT

By IC50 is commonly meant the concentration that gives 50% inhibition. Consider `CN[C@@H](C)C(=O)N[C@H]1CC[C@H](n2cc(COCc3cn([C@H]4CC[C@H](NC(=O)[C@H](C)NC)C(=O)N5[C@H](CC[C@H]5C(=O)N[C@@H]5CCCc6ccccc65)C4)nn3)nn2)C[C@H]2CC[C@@H](C(=O)N[C@@H]3CCCc4ccccc43)N2C1=O` (stereo in doubt) [SH-172], for which the IC50 in experiment [1] was less than 10 nM; in experiment [2], less than 1000 nM.
With `CN[C@@H](C)C(=O)N[C@H]1CCCC[C@H]2CC[C@@H](C(=O)N[C@H](COCCn3cc(COC[C@@H](NC(=O)[C@@H]4CC[C@@H]5CCCC[C@H](NC(=O)[C@H](C)NC)C(=O)N54)c4ccccc4)nn3)c3ccccc3)N2C1=O` [SH-143], the IC50 in experiment [1] was less than 50 nM.
On the same count and under the same terms, under `CN[C@@H](C)C(=O)N[C@H]1CCCC[C@H]2CC[C@@H](C(=O)N[C@H](COCc3cn([C@@H]4CC[C@H](NC(=O)[C@H](C)NC)C(=O)N5[C@H](CC[C@H]5C(=O)N[C@@H]5CCCc6ccccc65)C4)nn3)c3ccccc3)N2C1=O` [SH-146] stands less than 50 nM.
For the molecule `CN[C@@H](C)C(=O)N[C@H]1CC[C@@H](n2cc(COCc3cn([C@@H]4CC[C@H](NC(=O)[C@H](C)NC)C(=O)N5[C@H](CC[C@H]5C(=O)N[C@H]5CCCc6ccccc65)C4)nn3)nn2)C[C@H]2CC[C@@H](C(=O)NC3CCCc4ccccc43)N2C1=O` (stereo partly shown) [SH-153], the IC50 in experiment [1] was less than 10 nM; in experiment [2], less than 1000 nM.
As for `CN[C@@H](C)C(=O)N[C@H]1CCCC[C@H]2CC[C@@H](C(=O)N[C@@H](c3ccccc3)c3ccc(CCCn4cc(COCc5cn(CCCc6ccc([C@@H](NC(=O)[C@@H]7CC[C@@H]8CCCC[C@H](NC(=O)[C@H](C)NC)C(=O)N87)c7ccccc7)cc6)nn5)nn4)cc3)N2C1=O` [SH-155], the values for the IC50 (in experiment [1]; in experiment [2]; with SK-OV-3) were less than 10 nM, less than 100 nM and less than 100 nM, respectively.
Take `CN[C@@H](C)C(=O)N[C@H]1CCCC[C@H]2CC[C@@H](C(=O)N[C@@H](c3ccccc3)c3cn(CCOCCOCCn4cc([C@@H](NC(=O)[C@@H]5CC[C@@H]6CCCC[C@H](NC(=O)[C@H](C)NC)C(=O)N65)c5ccccc5)nn4)nn3)N2C1=O` [SH-158]: the values for the IC50 (in experiment [1]; in experiment [2]; in the experiment with SK-OV-3) were less than 10 nM, less than 1000 nM and less than 1000 nM, respectively.
On to `CN[C@@H](C)C(=O)N[C@H]1CCCC[C@H]2CC[C@@H](C(=O)N[C@@H](c3ccccc3)c3cn(CCOCCn4cc([C@@H](NC(=O)[C@@H]5CC[C@@H]6CCCC[C@H](NC(=O)[C@H](C)NC)C(=O)N65)c5ccccc5)nn4)nn3)N2C1=O` [SH-159], for which the IC50 is less than 10 nM in experiment [1], less than 1000 nM in experiment [2] and less than 1000 nM in the experiment with SK-OV-3.
In the case of `CN[C@@H](C)C(=O)N[C@H]1CCCC[C@H]2CC[C@@H](C(=O)N[C@@H](c3ccccc3)c3cn(CCCCn4cc([C@@H](NC(=O)[C@@H]5CC[C@@H]6CCCC[C@H](NC(=O)[C@H](C)NC)C(=O)N65)c5ccccc5)nn4)nn3)N2C1=O` [SH-166], the values for the IC50 (in experiment [1]; in experiment [2]; in the experiment with SK-OV-3) were less than 10 nM, less than 1000 nM and less than 1000 nM, respectively.
In the case of `CN[C@@H](C)C(=O)N[C@H]1CCCC[C@H]2CC[C@@H](C(=O)N[C@@H](c3ccccc3)c3cn(CCCCCCCCn4cc([C@@H](NC(=O)[C@@H]5CC[C@@H]6CCCC[C@H](NC(=O)[C@H](C)NC)C(=O)N65)c5ccccc5)nn4)nn3)N2C1=O` [SH-167], the IC50 (in experiment [2]; in the experiment on SK-OV-3) was less than 10 nM each time.
In the case of `CN[C@@H](C)C(=O)N[C@H]1CC[C@H](n2cc(COCc3cn([C@H]4CC[C@H](NC(=O)[C@H](C)NC)C(=O)N5[C@H](CC[C@H]5C(=O)NC(c5ccccc5)c5ccccc5)C4)nn3)nn2)C[C@H]2CC[C@@H](C(=O)NC(c3ccccc3)c3ccccc3)N2C1=O` [SH-176], the IC50 in experiment [1] is less than 10 nM; in experiment [2], less than 100 nM.
For `CN[C@@H](C)C(=O)N[C@H]1CC[C@@H](n2cc(COCc3cn([C@@H]4CC[C@H](NC(=O)[C@H](C)NC)C(=O)N5[C@H](CC[C@H]5C(=O)NC(c5ccccc5)c5ccccc5)C4)nn3)nn2)C[C@H]2CC[C@@H](C(=O)NC(c3ccccc3)c3ccccc3)N2C1=O` [SH-177] the same measures were less than 10 nM and less than 100 nM.
The matching figures for `CN[C@@H](C)C(=O)N[C@H]1CCCC[C@H]2CC[C@@H](C(=O)N[C@@H](c3ccccc3)c3cn(CCN4CCN(CCn5cc([C@@H](NC(=O)[C@@H]6CC[C@@H]7CCCC[C@H](NC(=O)[C@H](C)NC)C(=O)N76)c6ccccc6)nn5)CC4)nn3)N2C1=O` [SH-178]: less than 100 nM and less than 10000 nM.
The matching figures for `C[C@H](NCCO)C(=O)N[C@H]1CCCC[C@H]2CC[C@@H](C(=O)N[C@@H](c3ccccc3)c3cn(CCN4CCN(CCn5cc([C@@H](NC(=O)[C@@H]6CC[C@@H]7CCCC[C@H](NC(=O)[C@H](C)NCCO)C(=O)N76)c6ccccc6)nn5)CC4)nn3)N2C1=O` [SH-179]: less than 100 nM and less than 10000 nM.
In the case of `C[C@H](NCCO)C(=O)N[C@H]1CCCC[C@H]2CC[C@@H](C(=O)N[C@@H](c3ccccc3)c3cn(CCCCc4ccc(CCCCn5cc([C@@H](NC(=O)[C@@H]6CC[C@@H]7CCCC[C@H](NC(=O)[C@H](C)NCCO)C(=O)N76)c6ccccc6)nn5)cc4)nn3)N2C1=O` [SH-180], the figures for the IC50 (in experiment [1]; in experiment [2]; in the experiment with SK-OV-3) were less than 100 nM, less than 1000 nM and less than 1000 nM, respectively.
On to `CN[C@@H](C)C(=O)N[C@H]1CCCC[C@H]2CC[C@@H](C(=O)N[C@@H](c3ccc(F)cc3)c3cn(CCN4CCN(CCn5cc([C@@H](NC(=O)[C@@H]6CC[C@@H]7CCCC[C@H](NC(=O)[C@H](C)NC)C(=O)N76)c6ccc(F)cc6)nn5)CC4)nn3)N2C1=O` [SH-181], for which the values for the IC50 in experiment [1] and in experiment [2] were less than 100 nM and less than 10000 nM, respectively.
As for `CN[C@@H](C)C(=O)N[C@H]1CCCC[C@H]2CC[C@@H](C(=O)N[C@@H](c3ccc(F)cc3)c3cn(CCCCc4ccc(CCCCn5cc([C@@H](NC(=O)[C@@H]6CC[C@@H]7CCCC[C@H](NC(=O)[C@H](C)NC)C(=O)N76)c6ccc(F)cc6)nn5)cc4)nn3)N2C1=O` [SH-182], the IC50 in experiment [1] is less than 100 nM; in experiment [2] it was less than 10 nM; in the experiment with SK-OV-3, less than 10 nM.
Turning to `C[C@H](NCCO)C(=O)N[C@H]1CCCC[C@H]2CC[C@@H](C(=O)N[C@@H](c3ccc(F)cc3)c3cn(CCN4CCN(CCn5cc([C@@H](NC(=O)[C@@H]6CC[C@@H]7CCCC[C@H](NC(=O)[C@H](C)NCCO)C(=O)N76)c6ccc(F)cc6)nn5)CC4)nn3)N2C1=O` [SH-183], the half-inhibitory concentration (IC50) in experiment [1] was less than 100 nM; in experiment [2] it was less than 10000 nM.
For the molecule `C[C@H](NCCO)C(=O)N[C@H]1CCCC[C@H]2CC[C@@H](C(=O)N[C@@H](c3ccc(F)cc3)c3cn(CCCCc4ccc(CCCCn5cc([C@@H](NC(=O)[C@@H]6CC[C@@H]7CCCC[C@H](NC(=O)[C@H](C)NCCO)C(=O)N76)c6ccc(F)cc6)nn5)cc4)nn3)N2C1=O` [SH-184], the IC50 in experiment [1] was less than 100 nM; in experiment [2] it was less than 10 nM; in the experiment on SK-OV-3, less than 100 nM.
`CNC(Cc1c[nH]c2ccccc12)C(=O)NC1CCCCC2CCC(C(=O)NC(c3ccccc3)c3cn(CCCCc4ccc(CCCCn5cc(C(NC(=O)C6CCC7CCCCC(NC(=O)C(Cc8c[nH]c9ccccc89)NC)C(=O)N76)c6ccccc6)nn5)cc4)nn3)N2C1=O` (stereo not shown) [SH-187]: the IC50 in experiment [1] is more than 10000 nM.
As for `CN[C@@H](C)C(=O)N[C@H]1CCCC[C@H]2CC[C@@H](C(=O)N[C@@H](c3ccccc3)c3ccc(CCCNC(=O)NCCCc4ccc([C@@H](NC(=O)[C@@H]5CC[C@@H]6CCCC[C@H](NC(=O)[C@@H](C)NC)C(=O)N65)c5ccccc5)cc4)cc3)N2C1=O` [SH-188], the IC50 (in experiment [1]; in experiment [2]; with SK-OV-3) was less than 100 nM each time.
Take `CN[C@@H](C)C(=O)N[C@H]1CCCC[C@H]2CC[C@@H](C(=O)N[C@H](c3ccccc3)c3cn(CCCCc4ccc(CCCCn5cc([C@H](NC(=O)[C@@H]6CC[C@@H]7CCCC[C@H](NC(=O)[C@H](C)NC)C(=O)N76)c6ccccc6)nn5)cc4)nn3)N2C1=O` [SH-206]: the IC50 (in experiment [2]; in the experiment with SK-OV-3) was less than 1000 nM each time.
As to `CN[C@@H](C)C(=O)N[C@H]1CN(Cc2ccc(CN3CC[C@H]4CC[C@@H](C(=O)NC(c5ccccc5)c5ccccc5)N4C(=O)[C@@H](NC(=O)[C@H](C)NC)C3)cc2)CC[C@H]2CC[C@@H](C(=O)NC(c3ccccc3)c3ccccc3)N2C1=O` [YP-317], the IC50 in experiment [1] and in experiment [2] was less than 100 nM throughout.
Turning to `CN[C@@H](C)C(=O)N[C@H]1CN(C(=O)CCCCCCCCC(=O)N2CC[C@H]3CCC(C(=O)NC(c4ccccc4)c4ccccc4)N3C(=O)[C@@H](NC(=O)[C@H](C)NC)C2)CC[C@H]2CCC(C(=O)NC(c3ccccc3)c3ccccc3)N2C1=O` (stereo partly shown) [YP-381], the IC50 (in experiment [2]; in the experiment on SK-OV-3) was less than 10 nM throughout.
Turning to `CN[C@@H](C)C(=O)N[C@H]1CN(C(=O)CCCCCCCCCCC(=O)N2CC[C@H]3CC[C@@H](C(=O)NC(c4ccccc4)c4ccccc4)N3C(=O)[C@@H](NC(=O)[C@H](C)NC)C2)CC[C@H]2CC[C@@H](C(=O)NC(c3ccccc3)c3ccccc3)N2C1=O` [YP-383], the IC50 (in experiment [2]; with SK-OV-3) was less than 10 nM in each case.
Consider `CN[C@@H](C)C(=O)N[C@H]1CN(C(=O)CCCCCCC(=O)N2CC[C@H]3CCC(C(=O)NC(c4ccccc4)c4ccccc4)N3C(=O)[C@@H](NC(=O)[C@H](C)NC)C2)CC[C@H]2CCC(C(=O)NC(c3ccccc3)c3ccccc3)N2C1=O` (stereo partly shown) [YP-385], for which the IC50 (in experiment [2]; with SK-OV-3) was less than 10 nM in each case.
